Literature values, collected in patent US11872314B2, “Pharmaceutical compositions” (Shin Nippon Biomedical Laboratories, Ltd., priority 2016, dated 2024).

Details: at 25° C.

- Water solbility: 0.937 µg/mL
SMILES: COc1ccc2c(c1)c(CC(=O)O)c(C)n2C(=O)c1ccc(Cl)cc1 [Indomethacin, indomethacin]
